Test results: article PMC6121902, “Conjugation with Dihydrolipoic Acid Imparts Caffeic Acid Ester Potent Inhibitory Effect on Dopa Oxidase Activity of Human Tyrosinase” (International Journal of Molecular Sciences, 2018)
“Also recorded” adds a separate entry of the source.

Legend:
[1] = system: mushroom tyrosinase; test: Consumption of inhibitor by mushroom tyrosinase (substrate test, HPLC); format: biochemical; conditions: 100 μM, 10 min
Description: Some tyrosinase inhibitors are also substrates of the enzyme and this is a critical issue because their oxidation can lead to the formation of highly reactive, cytotoxic o-quinones. To rule out this possibility, either LCAME or CAME at 100 μM were exposed to mushroom tyrosinase, in the absence of L-DOPA, and after 10 min, the reaction mixtures were analyzed by HPLC. […] HPLC analyses for determination of the consumption of CAME and LCAME in the presence of mushroom tyrosinase were performed on a Agilent 1100 binary pump instrument equipped with a UV-visible detector using an octadecylsilane-coated column, 250 mm × 4.6 mm, 5 μm particle size (Phenomenex Sphereclone ODS, Bologna, Italy) at 0.7 mL/min, using the following gradient: 0.1% formic acid (eluant a)/ methanol (eluant b): 40% b, 0–10 min; from 40 to 80% b, 47.5–52.5 min; from 80 to 40% b, 52.5–57.5 min. Detection wavelength was set at 280 nm. Stock methanolic solutions of LCAME or CAME, ranging in concentration from 0.02 to 20 mM concentration were prepared dissolving a proper amount of the compound of interest in methanol. 100 μL of these solutions were added to 2 mL of 50 mM phosphate buffer at pH 6.8 (final concentrations range: 0.001–1 mM), in the presence or in the absence of 20 U/mL mushroom tyrosinase. After 10 min incubation at room temperature, 20 μL of a 100 mM solution of L-DOPA or L-tyrosine in 0.6 M HCl, were added (final concentration: 1 mM). Spectrophotometric analysis was performed by measuring the absorbance at 475 nm for 10 min at 2 min intervals. In control experiments, the reaction was run in the absence of LCAME. When required, the experiment was performed as above but adding L-DOP A soon after the addition of LCAME ([…]). In separate experiments, the assay was run as above with LCAME or CAME at 100 μM, in the presence or absence of L-DOPA, and after 10 min the mixture was analyzed by HPLC.

[2] = target: mushroom tyrosinase; test: Mushroom tyrosinase TH activity inhibition (dopachrome formation at 475 nm, L-tyrosine substrate); format: biochemical; conditions: 10 min pre-incubation, L-tyrosine 1 mM, tyrosinase 20 U/mL, pH 6.8
Description: The inhibition properties of LCAME were preliminarily investigated on mushroom tyrosinase by spectrophotometric monitoring of dopachrome formation, a method which is routinely used for evaluation of the activity of potential tyrosinase inhibitors. L-DOPA was used as the substrate to test DO activity while L-tyrosine was used to test TH activity. LCAME was incubated in 50 mM phosphate buffer in the presence of mushroom tyrosinase (20 U/mL) at room temperature. After 10 min, L-DOPA or L-tyrosine (1 mM final concentration) were added and the absorbance at 475 nm was measured at different times over 10 min. For comparative purposes the effects of CAME were evaluated as well. Stock methanolic solutions of LCAME or CAME, ranging in concentration from 0.02 to 20 mM concentration were prepared dissolving a proper amount of the compound of interest in methanol. 100 μL of these solutions were added to 2 mL of 50 mM phosphate buffer at pH 6.8 (final concentrations range: 0.001–1 mM), in the presence or in the absence of 20 U/mL mushroom tyrosinase. […] Spectrophotometric analysis was performed by measuring the absorbance at 475 nm for 10 min at 2 min intervals. […] In separate experiments, the assay was run as above with LCAME or CAME at 100 μM, in the presence or absence of L-DOPA, and after 10 min the mixture was analyzed by HPLC.

[3] = system: tyrosinase; test: Tyrosinase expression by Western blot (αPEP7), with or without NDP-MSH; format: cell-based, human
Description: Control HBL cells or cells grown in the presence of CAME (25 µM) or LCAME (25 or 50 µM) were stimulated for 48 h with a potent analogue of αMSH ([Nle^4,D-Phe^7]-α-MSH (NDP-MSH), 10^−7 M). Use of the 50 μM concentration of CAME was avoided since this concentration was somewhat cytotoxic as shown above. Expression of tyrosinase was then evaluated by Western blot using a specific antibody directed against tyrosinase (αPEP7). […] However, other mechanisms such as interference with activation and/or functional coupling of the melanocortin 1 receptor responsible for αMSH actions cannot be ruled out and a complete study of these possibilities is beyond the scope of this work. Accordingly, interference of LCAME with MITF expression or activity remains speculative at this stage. In any case, this preliminary observation deserves confirmation using cultured normal human melanocytes and further mechanistic analysis, as it may further support the potential use of LCAME as a skin depigmenting agent. Indeed, LCAME may act at two different levels, on one hand by inhibiting preexisting tyrosinase by a competitive mechanism, and on the other hand by interfering with αMSH-dependent induction of tyrosinase expression.
Figure 5 Effect on tyrosinase expression of CAME (25 µM) and LCAME (25 and 50 µM). HBL melanoma cells were incubated with or without the indicated compounds and stimulated with NDP-MSH (10^−7 M). After 48 h of treatment, tyrosinase levels were compared by Western blotting, performed as described in Materials and Methods. […] For each experimental condition, the fold-increase of tyrosinase abundance upon NDP-MSH treatment relative to the corresponding control was determined by densitometric analysis (ImageJ software) and is shown below the figure.
After protein separation by SDS-PAGE, they were transferred from the gel to the membrane and immunochemical detection with anti-PEP7 was performed as previously described. Briefly, the filters were blocked for 1 h in 2% bovine serum albumin in 1% Tween 20 PBS and incubated overnight at 4 °C with primary antibodies (1:4000 dilution). The filters were washed and further incubated with peroxidase-labeled mouse anti-rabbit IgG (1:5000 dilution). Staining and detection were done with ECL Plus Western Blotting Detection System chemiluminescent substrate (Thermo Fisher Scientific, Waltham, MA, USA). Images were acquired in a Fusion Solo.6S system (Vilber-Lourmat, Marne La Vallée, France). Signal intensities were estimated with ImageJ (National Institutes of Health, Bethesda, […], USA) in independent blots, and normalized with the corresponding loading controls (obtained by staining the membranes with an anti-ERK2 antibody).

[4] = system: T1, human tyrosinase; test: Substrate test with HBL cell lysates and MBTH (absorbance at 490 nm); format: biochemical; conditions: different concentrations, over 1 h
T1 construct: The oxidation of L-DOPA by cell-free HBL cell extracts was monitored spectrophotometrically at 490 nm; endogenous in cells; host or cells: HBL human melanoma cells (detergent-solubilized cell extract)

With `COC(=O)/C=C/c1ccc(O)c(O)c1SCCC(S)CCCCC(=O)O` (stereo not drawn) [LCAME, 2-S-lipoylcaffeic acid methyl ester] the “consumption of the inhibitor” value ([1]; absence of L-DOPA) was “no significant consumption”, the “consumption of the inhibitor” value ([1]; presence of L-DOPA) was “The same result” and the IC50 [2] was 830 ± 90 nM. For the same molecule, the “NDP-MSH-mediated stimulation of tyrosinase expression” value ([3]; 25 or 50 µM, NDP-MSH 10^−7 M, 48 h) was “apparently blocked”, the basal tyrosinase expression ([3]; HBL cells, CAME 25 µM or LCAME 25 or 50 µM, Western blot) was “No alteration; also recorded: No significant changes” and the “change in the absorbance at 490 nm (substrate of human tyrosinase)” value [4] was “did not induce any change”.
